Columns and labels:
HepG2-2.2.15 cells = assay: Cell viability of HepG2-2.2.15 cells (dye uptake assay); format: cell-based; settings: peptide 10 micrograms per ml
Experimental: (§1) HepG2-2.2.15 cells were plated in 96-well microtiter plates. After 16-24 hours the confluent monolayer of HepG2-2.2.15 cells was washed and the medium was replaced with complete medium containing test peptide—10 micrograms per ml—in duplicate. Lamivudine (3TC) was used as the positive control, while media alone was added to the cells as a negative control (virus control). Three days later the culture medium was replaced with fresh medium containing the peptide. Six days following the initial administration of the peptide, the cell culture supernatants was collected, treated with pronase and DNAse and then used in a real-time quantitative TaqMan PCR assay. The PCR-amplified HBV DNA was detected in real-time by monitoring increases in fluorescence signals that result from the exonucleolytic degradation of a quenched fluorescence probe molecule that hybridizes to the mplified HBV DNA. For each PCR amplification, a standard curve was simultaneously generated using dilutions of purified HBV DNA. Antiviral activity was calculated from the reduction in HBV DNA levels (% virus control). A novel dye uptake assay was then employed to measure cell viability, which is used to calculate toxicity (% cell control).

HIV-1IIIB = assay: HIV-1 antiviral assay (CPE reduction) in CEM-SS cells, MTS readout; settings: for antiviral activity of positive control compounds (in words): assay validity statement; for % CPE reduction in HIV-1 infected CEM-SS cells: peptide 10 micrograms per ml, 6 days post-infection, MTS
HCMV strain AD169 = assay: HCMV plaque reduction assay in MRC-5 cells; settings: for % plaque reduction: HCMV in MRC-5 cells, peptide 10 micrograms per ml, 7-10 days
MRC-5 cells = assay: in vitro; format: cell-based; settings: human, 6 days
[1] = tested on: hepatitis B virus (HBV) ayw strain; assay: HBV replication assay in HepG2-2.2.15 cells (TaqMan PCR of secreted HBV DNA); format: cell-based; settings: peptide 10 micrograms per ml; six days; HBV DNA in supernatant
Source text: HepG2-2.2.15 is a stable cell line containing the hepatitis B virus (HBV) ayw strain genome (ATCC Cat. No. CRL-11997). Antiviral compounds blocking any late step of viral replication such as transcription, translation, pregenome encapsidation, reverse transcription, particle assembly and release can be identified and characterized using this cell line. In this assay, an active compound will reduce the production of secreted HBV from cells, measured by utilizing real time quantitative PCR (TaqMan) assay to directly and accurately measure HBV DNA copies.
HepG2-2.2.15 cells were plated in 96-well microtiter plates. After 16-24 hours the confluent monolayer of HepG2-2.2.15 cells was washed and the medium was replaced with complete medium containing test peptide—10 micrograms per ml—in duplicate. […] Six days following the initial administration of the peptide, the cell culture supernatants was collected, treated with pronase and DNAse and then used in a real-time quantitative TaqMan PCR assay. The PCR-amplified HBV DNA was detected in real-time by monitoring increases in fluorescence signals that result from the exonucleolytic degradation of a quenched fluorescence probe molecule that hybridizes to the mplified HBV DNA. […] Antiviral activity was calculated from the reduction in HBV DNA levels (% virus control). […]

[2] = tested on: Human Peripheral Blood Mononuclear Cells (PBMC); assay: B cell proliferation assay (SAC plus Interleukin-2, 3H-thymidine); format: cell-based; settings: peptide 10 micrograms per ml
Experimental: Human Peripheral Blood Mononuclear Cells (PBMC) were obtained from normal human donors. The B cell proliferation was induced by stimulation of the cells with the B cell mitogen Staphylococcus aureus Cowans I (SAC) plus Interleukin-2, either in the absence (positive proliferation control), or in the presence of test peptide—10 micrograms per ml—to examine their effects on the B cell response. 10^5/well PBMC were plated in 96-well microtiter plates and assayed in duplicate with the peptide. Cell cultures were incubated at 37° C. for 3 days in a 5% CO2 incubator and were thereafter pulsed with 1microCi/well ^3H-thymidine for additional 12 hours of culture. At the end of incubation time, the plates were harvested and the cells counted by liquid scintillation for the incorporation of ^3H-thymidine as a measure of B cell proliferation.

[3] = tested on: macrophages prepared from PBMC; assay: TNF alpha production assay (LPS-stimulated macrophages, ELISA); format: cell-based, Human; settings: peptide 10 micrograms per ml, lipopolysaccharide 200 ng/ml, overnight
Experimental: Human Peripheral Blood Mononuclear Cells (PBMC) were obtained from normal human donors. The macrophages were prepared by adherence of PBMC to the plastic wells of the plates. […] Not stimulated macrophages served as negative background control.
After overnight incubation, supernatants from the control and LPS-stimulated cultures were harvested and assayed for TNF alpha production employing a TNF alpha specific ELISA.

RAW 264.7 cells = assay: Phagocytosis assay (Fluorescein-labeled Escherichia coli); settings: peptide 10 micrograms per ml, flow cytometry
[4] = tested on: Human Peripheral Blood Mononuclear Cells (PBMC); assay: T cell proliferation assay (PHA, 3H-thymidine); format: cell-based; settings: peptide 10 micrograms per ml
Experimental: Human Peripheral Blood Mononuclear Cells (PBMC) were obtained from normal human donors. The T cell proliferation was induced by stimulation of the cells with the T cell mitogen phytohemagglutinin (PHA), either in the absence (positive proliferation control), or in the presence of test peptide—10 micrograms per ml—to examine their effects on the T cell proliferating response. 10^5/well PBMC were plated in 96-well microtiter plates and assayed in duplicate with the peptide. Cell cultures were incubated at 37° C. for 3 days in a 5% CO2 incubator and were thereafter pulsed with 1microCi/well ^3H-thymidine for additional 12 hours of culture. At the end of incubation time, the plates were harvested and the cells counted by liquid scintillation for the incorporation of ^3H-thymidine as a measure of T cell proliferation.

Streptococcus pneumoniae = format: cell-based; settings: 5 micrograms per ml
HUVEC = assay: Endothelial tube formation assay; format: cell-based, Human; settings: peptide 10 micrograms per ml, 20 hours
Source text: […] control wes vehicle only. […] Raw data were expressed as average tubule lenghs in pixels±standard deviation.

MRSA = settings: 5 micrograms per ml
in vitro [5] = settings: human, CEM-SS cells
[6] = Cell viability of HepG2-2.2.15 cells (dye uptake assay); format: cell-based; settings: human, peptide 10 micrograms per ml
Experimental: as §1

spleen cells = assay: Th1/Th2 cytokine profiling assay (Ovalbumin restimulated spleen cells, CBA kit); format: cell-based, Balb/c mice; settings: peptide 10 micrograms per ml; Ovalbumin restimulation; 72 hours
Source text: The Balb/c mice (originated in 1923, it is a popular strain and is used in many different research disciplines. Also classified as an inbred from the production of 20 or more successive brother-sister matings, the Balb/c mouse is albino and small in size) were immunized on Days 1, 15, and 29 with Ovalbumin (Ovalbumin is the main protein found in egg white, commonly used to stimulate an immunological reaction in test animals) in PBS (5 micrograms/injection). On day 50, spleens of the mice were harvested (3 weeks after last boost with Ovalbumin). […] Thereafter, additional Ovalbumin was added to the cells at 10 micrograms/ml for in vitro restimulation of the cells. 72 hours later, cell supernatants were harvested and assayed using the Becton Dickinson Mouse Th1/Th2 Cytokine CBA Kit. This kit can be used to measure Interleukin-2 (IL-2), Interleukin-4 (IL-4), Interleukin-5 (IL-5), Interferon-γ (IFN-γ), and Tumor Necrosis Factor-α (TNF-α) protein levels in a single sample. The kit performance has been optimized for analysis of physiologically relevant concentrations (pg/ml levels) of specific cytokine proteins in tissue culture supernatants and serum samples.

in vitro [7] = format: cell-based; settings: human, MRC-5 cells
[8] = tested on: Primary Human endothelial cells (HUVEC); assay: Endothelial cell migration assay; format: cell-based; settings: peptide 10 micrograms per ml, 22 hours
Pseudomonas aeruginosa = format: cell-based; settings: 5 micrograms per ml
A549 cells [9] = assay: Propidium iodide cell cycle assay; format: cell-based, Human; settings: 24 hours, peptide 10 micrograms per ml, FACS
Source text: Human A549 cells (carcinomic human alveolar basal epithelial cells) were utilized in the experiments employing the Propidium iodide cell cycle assay. The eukaryotic cell cycle is a series of events that take place in a cell leading to its replication. The regulation of the cell cycle involves steps crucial to the cell, including detecting and repairing genetic damage, and provision of various checks to prevent uncontrolled cell division. The molecular events that control the cell cycle are ordered and directional; that is, each process occurs in a sequential fashion.
Propidium iodide is an intercalating agent and a fluorescent molecule that can be used to stain DNA. Cells were incubated for 24 hours with test peptide—10 micrograms per ml—or left untreated. After that cells were trypsinized, suspended in medium+10% FCS, centrifuged (1000 rpm, 5 min), and the cell pellet resuspended in PBS (1 ml). The cells were pipetted into 2.5 ml absolute EtOH (final concentration approx. 70%) and incubated on ice for 15 min. Thereafter, cells were pelleted at 1500 rpm for 5 min and resuspended in Propidium iodide solution in PBS. After incubation for 40 min at 37° C., cells were analyzed in the FACS.

A549 cells [10] = assay: Apoptosis prevention assay (C2 ceramide, Annexin-5); format: cell-based, Human; settings: 30 min pretreatment, peptide 10 micrograms per ml
Source text: Human A549 cells (carcinomic human alveolar basal epithelial cells) were utilized in the experiments employing the Annexin-5 apoptosis assay. Annexin-5 is a member of a highly conserved protein family that binds acidic phospholipids in a calcium-dependent manner. […] Phosphatidylserine is translocated from the inner side of the plasma membrane to the outer layer when cells undergo death by apoptosis or cell necrosis and serves as a signal by which cell destined for death are recognized by phagocytes. A549 cells were pretreated for 30 min with test peptide—10 micrograms per ml—followed by the exposure to C2 ceramide. Ceramide mediates cell apoptosis through the activation of the mitogen activating protein kinase (MAPK) and the stress activated kinase (JNK/SAPK). C2 ceramide is a synthetic, membrane soluble analog of ceramide.

A549 cells [11] = assay: Apoptosis induction assay (Annexin-5); format: cell-based, Human; settings: 24 hours, peptide 10 micrograms per ml
Source text: Human A549 cells (carcinomic human alveolar basal epithelial cells) were utilized in the experiments employing the Annexin-5 apoptosis assay. Annexin-5 is a member of a highly conserved protein family that binds acidic phospholipids in a calcium-dependent manner. […] Phosphatidylserine is translocated from the inner side of the plasma membrane to the outer layer when cells undergo death by apoptosis or cell necrosis and serves as a signal by which cell destined for death are recognized by phagocytes. Test peptide—10 micrograms per ml—were exposed for 24 hours to the A549 cells before they were analyzed for signs of apoptosis.

Nc1ccn([C@@H]2CS[C@H](CO)O2)c(=O)n1 [3TC, Lamivudine, reference compound]
% Cell viability (HepG2-2.2.15 cells): 95.8%

Cc1cn([C@H]2C[C@H](N=[N+]=[N-])[C@@H](CO)O2)c(=O)[nH]c1=O [AZT, zidovudine]
antiviral activity of positive control compounds (in words) (HIV-1IIIB): expected levels of antiviral activity | % CPE reduction in HIV-1 infected CEM-SS cells (HIV-1IIIB): 99%

Nc1nc(O)c2ncn(COC(CO)CO)c2n1 [Ganciclovir]
% plaque reduction (HCMV strain AD169): 100% | antiviral activity of positive control compound (in words) (HCMV strain AD169; assay validity statement): expected levels of antiviral activity | % Cell viability (MRC-5 cells): 100%

CC(C)(C)NC(=O)[C@@H]1CN(Cc2cccnc2)CCN1C[C@@H](O)C[C@@H](Cc1ccccc1)C(=O)N[C@H]1c2ccccc2C[C@H]1O [Indinavir, indinavir]
antiviral activity of positive control compounds (in words) (HIV-1IIIB): expected levels of antiviral activity | % CPE reduction in HIV-1 infected CEM-SS cells (HIV-1IIIB): 100%

CC[C@H](C)[C@H](NC(=O)[C@H](CCC(=O)O)NC(=O)[C@H](CO)NC(=O)[C@@H](NC(=O)[C@@H](N)CO)C(C)C)C(=O)N[C@@H](CCC(N)=O)C(=O)N[C@@H](CC(C)C)C(=O)N[C@@H](CCSC)C(=O)N[C@@H](Cc1cnc[nH]1)C(=O)N[C@@H](CC(N)=O)C(=O)N[C@@H](CC(C)C)C(=O)NCC(=O)N[C@@H](CCCCN)C(=O)N[C@@H](Cc1cnc[nH]1)C(=O)N[C@@H](CC(C)C)C(=O)N[C@@H](CC(N)=O)C(=O)N[C@@H](CO)C(=O)N[C@@H](CCSC)C(=O)N[C@@H](CCC(=O)O)C(=O)N[C@@H](CCCN=C(N)N)C(=O)N[C@H](C(=O)N[C@@H](CCC(=O)O)C(=O)N[C@@H](Cc1c[nH]c2ccccc12)C(=O)N[C@@H](CC(C)C)C(=O)N[C@@H](CCCN=C(N)N)C(=O)N[C@@H](CCCCN)C(=O)N[C@@H](CCCCN)C(=O)N[C@@H](CC(C)C)C(=O)N[C@@H](CCC(N)=O)C(=O)N[C@@H](CC(=O)O)C(=O)N[C@H](C(=O)N[C@@H](Cc1cnc[nH]1)C(=O)N[C@@H](CC(N)=O)C(=O)N[C@@H](Cc1ccccc1)C(=O)O)C(C)C)C(C)C [pTH (1-34)]
% inhibition of HBV replication in HEP G2 cells [1]: 0.0% | % of SAC/IL2 induced control [2]: 106.0% | % CPE reduction in HIV-1 infected CEM-SS cells (HIV-1IIIB): 18.1% | % plaque reduction (HCMV strain AD169): 0.0% | % of LPS induction [3]: 117.1% | % of control phagocytosis (RAW 264.7 cells): 102.9% | % of PHA induced control [4]: 110.2% | % inhibition (Streptococcus pneumoniae): 0.0% | % inhibition of tube formation (HUVEC): 28.0% | % inhibition (MRSA): 0.0% | viability at 10 micrograms per ml (in vitro [5]): 99.4% | viability at 144 h, 10 micrograms per ml [6]: 100% | IFNγ spleen cells; TH1 response (% of control) (spleen cells): 68.6 % of control | IL-2 spleen cells (% of control) (spleen cells): 180.4 % of control | IL-4 spleen cells; TH2 response (% of control) (spleen cells): 135.2 % of control | IL-5 spleen cells; TH2 response (% of control) (spleen cells): 85.9 % of control | TNF-a spleen cells; TH1 response (% of control) (spleen cells): 114.1 % of control | viability at 144 h (in vitro [7]): 100% | % inhibition of migration [8]: −4.0% | % inhibition (Pseudomonas aeruginosa): 0.0% | Cell cycle analysis G0/G1 (A549 cells [9]): 59.1 | Cell cycle analysis G2/M (A549 cells [9]): 7.5 | Cell cycle analysis S (A549 cells [9]): 34.4 | % prevention of ceramide induced apoptosis (A549 cells [10]): 23.85% | % of induction (A549 cells [11]): 1.1%
